Reference: the OPERA property sets (Mansouri et al. 2018)

Work on `c1csc(N2CCNCC2)n1` yielded a logP of 0.61. `c1ccc2c(N3CCNCC3)nsc2c1` showed a logP of 2.14. For `c1ccc2nc(N3CCNCC3)ccc2c1`, the logP was 2.04. Work on `Clc1ccccc1N1CCNCC1` yielded a logP of 2.13. `c1cnc(N2CCNCC2)nc1` showed a logP of 0.49. Work on `Clc1cccc(N2CCNCC2)c1` yielded a logP of 2.11. Work on `Cc1ccccc1N1CCNCC1` yielded a logP of 2.14. For `Fc1ccc(N2CCNCC2)cc1`, the logP was 1.28. Work on `c1ccc(N2CCNCC2)nc1` yielded a logP of 0.74. Work on `c1ccc(N2CCNCC2)cc1` yielded a logP of 1.1. For `COc1ccccc1N1CCNCC1`, the logP was 1.67. `Clc1ccc(N2CCNCC2)cc1` gave a logP of 2.01. `FC(F)(F)c1cccc(N2CCNCC2)c1` showed a logP of 2.43. `Fc1ccnc(N2CCNCC2)n1` showed a logP of 0.97.
